In patent US5453533A (priority 1994, dated 1995):
Entries after “also recorded” stand apart in the source; their conditions may differ. Where two headings read alike, the source gives them in different places.

Key:
[1] = target: T1, type B (B/Memphis/3/89) neuraminidase (Influenza B virus (B/Memphis/3/89), UniProt P16199); format: biochemical; conditions: read-out: IC50, MUN substrate, B/Mem/89
[2] = target: T1, type B (B/Memphis/3/89) neuraminidase; format: biochemical; conditions: read-out: IC50, Fetuin substrate, B/Mem/89
[3] = target: T2, N2 (A/Tokyo/67) neuraminidase (Influenza A virus, UniProt P06820); experiment: biochemical; parameters: species or system influenza A virus (A/Tokyo/67)
T2 sequence (P06820 whole entry, looked up): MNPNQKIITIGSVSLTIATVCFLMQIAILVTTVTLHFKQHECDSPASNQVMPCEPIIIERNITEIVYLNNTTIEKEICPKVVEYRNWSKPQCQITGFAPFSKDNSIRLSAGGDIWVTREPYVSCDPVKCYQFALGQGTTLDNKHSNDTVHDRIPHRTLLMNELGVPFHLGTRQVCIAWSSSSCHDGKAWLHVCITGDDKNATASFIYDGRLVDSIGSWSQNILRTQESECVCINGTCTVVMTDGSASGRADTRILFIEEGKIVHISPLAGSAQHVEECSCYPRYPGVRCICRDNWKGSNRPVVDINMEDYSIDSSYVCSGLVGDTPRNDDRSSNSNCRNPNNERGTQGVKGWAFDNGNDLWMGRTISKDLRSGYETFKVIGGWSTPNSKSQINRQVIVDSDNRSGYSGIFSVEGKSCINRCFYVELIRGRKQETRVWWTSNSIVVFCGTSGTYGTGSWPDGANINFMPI

[4] = target: T2, N2 (A/Tokyo/67) neuraminidase; experiment: biochemical; parameters: species or system influenza A virus (A/Tokyo/67); remark: listed apart in the source
[5] = target: N2 (Influenza A virus (A/Tokyo/3/1967(H2N2)), UniProt P06820); format: binding
Chain of N2 (Influenza A virus (A/Tokyo/3/1967(H2N2)), UniProt P06820) (P06820 whole entry, looked up): as above

Influenza NA [6] = conditions: trisaccharide substrate; cited from earlier work
influenza B = conditions: cited from earlier work
influenza subtype A = conditions: cited from earlier work
influenza neuraminidase = conditions: cited from earlier work
influenza A neuramidase = conditions: Taylor & von Itzstein, 1994; cited from earlier work
influenza NA [7] = format: biochemical, influenza virus type A or type B
[8] = whole virus, 50% inhibition of NA activity, MUN, 15 minutes at 37° C, pH 6.0

T1 sequence (P16199 whole entry, looked up): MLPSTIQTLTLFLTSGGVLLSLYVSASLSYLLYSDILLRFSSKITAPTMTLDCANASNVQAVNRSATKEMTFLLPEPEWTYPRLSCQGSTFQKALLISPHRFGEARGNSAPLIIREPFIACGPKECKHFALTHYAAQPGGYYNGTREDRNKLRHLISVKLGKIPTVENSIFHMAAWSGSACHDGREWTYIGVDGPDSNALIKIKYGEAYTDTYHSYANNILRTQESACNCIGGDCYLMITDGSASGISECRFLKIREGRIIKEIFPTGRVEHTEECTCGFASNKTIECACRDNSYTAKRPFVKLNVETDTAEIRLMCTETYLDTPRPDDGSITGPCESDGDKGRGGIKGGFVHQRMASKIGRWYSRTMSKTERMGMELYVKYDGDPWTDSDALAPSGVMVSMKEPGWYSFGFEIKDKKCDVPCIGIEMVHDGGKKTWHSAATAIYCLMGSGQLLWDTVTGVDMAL

| Compound | IC50 ([1]; pH 6) | IC50 [2] | IC50 [3] | IC50 [4] | also measured |
| --- | --- | --- | --- | --- | --- |
| CC(=O)Nc1c(N)cc(C(=O)O)cc1O.Cl [Compound 106, 3-amino-4-(acetylamino)-5-hydroxybenzoic acid, hydrochloride] | 10 mM | > 10 mM | > 10 mM | > 10 mM | binding to N2 [5]: bind fairly well |
| N-acetyl neuraminyl lactose | – | – | – | – | Km (Influenza NA [6]): ~400 µM |
| CC(N)C12CC3CC(CC(C3)C1)C2 (stereo not shown) [rimantadine] | – | – | – | – | effect on influenza B (influenza B): no effect on influenza B; effect against influenza A (influenza subtype A): effective only against influenza subtype A |
| CC(=O)Nc1ccc(C(=O)O)cc1OC(C)=O [Compound 102, 4-(acetylamino)-3-acetoxybenzoic acid] | > 10 mM | 5 mM | 10 mM | > 10 mM | – |
| CC(=O)Nc1ccc(C(=O)O)cc1NC(=O)C(O)CO (stereo not shown) [Compound 110, 4-(acetylamino)-3-[(2,3-dihydroxypropionyl)amino]benzoic acid] | 8 mM | > 10 mM | – | – | – |
| CC(=O)Nc1c(OC(C)=O)cc(C(=O)O)cc1[N+](=O)[O-] [Compound 104, 3-acetoxy-4-(acetylamino)-5-nitrobenzoic acid] | 2 mM | 5 mM | – | – | – |
| CC(=O)N[C@H]1[C@H]([C@H](O)[C@H](O)CO)OC(C(=O)O)=C[C@@H]1O [DANA, 2-deoxy-2,3-dehydro-N-acetylneuraminic acid, reference compound] | 0.015 mM | 0.015 mM | 0.015 mM | 0.015 mM | Ki (influenza neuraminidase; in vitro, influenza neuraminidase): 0.01 mM; Ki (influenza A neuramidase): 0.004 mM |
| CC(=O)Nc1cc([N+](=O)[O-])c(C(=O)O)c([N+](=O)[O-])c1O [Compound 103, 4-(acetylamino)-3-hydroxy-2,6-dinitrobenzoic acid] | 1 mM | 4 mM | – | – | – |
| CC(=O)Nc1ccc(C(=O)O)cc1N [Compound 108, 4-(acetylamino)-3-aminobenzoic acid] | > 20 mM | – | > 10 mM | > 10 mM | binding to N2 [5]: binds the weakest to N2 |
| NC12CC3CC(CC(C3)C1)C2 [amantadine] | – | – | – | – | effect on influenza B (influenza B): no effect on influenza B; effect against influenza A (influenza subtype A): effective only against influenza subtype A |
| CC(=O)Nc1c(O)cc(C(=O)O)cc1[N+](=O)[O-] [Compound 105, 4-(acetylamino)-3-hydroxy-5-nitrobenzoic acid] | 0.75 mM | 1 mM | – | – | Activity compared with sialic acid (influenza NA [7]): significantly more potent than sialic acid; also recorded: enhanced activity; binding to N2 [5]: binds strongest to N2 |
| CC(=O)Nc1ccc(C(=O)O)cc1NC(=O)CN [Compound 111, 4-(acetylamino)-3-[(aminoacetyl)amino]benzoic acid] | – | 5 mM | – | 5 mM | – |
| O=C(O)C1=C[C@H](O)[C@@H](NC(=O)C(F)(F)F)[C@H]([C@H](O)[C@H](O)CO)O1 [FANA, 2-deoxy-2,3-dehydro-N-(trifiuoroacetyl)neuraminic acid] | – | – | – | – | in vitro activity compared with DANA (influenza neuraminidase; Palese and Compans, 1976): greater in vitro activity |
| CC(=O)N[C@H]1[C@H]([C@H](O)[C@H](O)CO)OC(O)(C(=O)O)C[C@@H]1O (stereo partly shown) [sialic acid, N-acetylneuraminic acid, reference compound] | – | – | – | – | IC50 [1, 8]: > 10 mM; IC50 (influenza NA [7]; whole virus screen, MUN and fetuin, read-out: IC50 (modest product inhibitor)): 10 mM; Ki (influenza neuraminidase): ~1 mM |
| CC(=O)Nc1ccc(C(=O)O)cc1NC(=O)CCCN [Compound 112, 4-(acetylamino)-3-[(4-aminobutanoyl)amino]benzoic acid] | > 10 mM | > 10 mM | > 10 mM | > 10 mM | – |
| CC(=O)Nc1ccc(C(=O)O)cc1[N+](=O)[O-] [Compound 107] | – | – | 5 mM | 5 mM | IC50 [1, 8]: 5 mM; IC50 ([2]; whole virus, 50% inhibition of NA activity, fetuin): 5 mM; Change in activity from nitro group alone or phenol OH alone (influenza NA [7]): did not result in significant changes in activity |
| CC(=O)Nc1ccc(C(=O)O)cc1O [Compound 101, 4-(acetylamino)-3-hydroxybenzoic acid] | > 10 mM | 10 mM | 10 mM | > 10 mM | Change in activity from nitro group alone or phenol OH alone (influenza NA [7]): did not result in significant changes in activity |
| CC(=O)Nc1ccc(C(=O)O)cc1NC(=O)CO [Compound 109, 4-(acetylamino)-3-[(hydroxyacetyl)amino]benzoic acid] | 3 mM | 10 mM | > 10 mM | 4 mM | – |
